From BindingDB's records for doi:10.7270/Q25B01BH (D3R/Abbott, 2015)

Each molecule was assayed against Cyclin-dependent kinase 2 (Homo sapiens, UniProt P24941) (assay: OctetRed_Method1).
Text: OctetRed_Method1

Row | Kd | SMILES
1 | > 100 µM | CCn1c(SCC(=O)Nc2ccccc2OC)nnc1-c1ccco1 [CS119]
2 | > 100 µM | CN(CC(=O)Nc1ccccc1C(=O)N1CCCC1)CS(=O)(=O)c1ccc(Br)cc1 [CS130]
3 | > 100 µM | CC(Sc1nc2ccccc2[nH]1)C(=O)Nc1ccc(S(N)(=O)=O)cc1 (centres undefined) [CS140]
4 | > 100 µM | COc1cc([N+](=O)[O-])ccc1NC(=O)CN1CCOCC1 [CS142]
5 | > 100 µM | O=C1c2ccccc2C(=O)N1CCCc1nc(-c2cccc([N+](=O)[O-])c2)no1 [CS148]
6 | > 100 µM | Cc1c(NS(=O)(=O)c2cccc3nonc23)c(=O)n(-c2ccccc2)n1C [CS150]
7 | > 100 µM | Cc1cc(C)c(S(=O)(=O)N(C)CC(=O)N2CCC(C(N)=O)CC2)c(C)c1 [CS152]
8 | > 100 µM | O=C(Cn1ccc([N+](=O)[O-])n1)N1CCCc2ccccc21 [CS154]
9 | > 100 µM | CS(=O)(=O)N(CC(=O)Nc1ccccc1C(=O)N1CCOCC1)c1ccc(Cl)cc1 [CS160]
10 | > 100 µM | Cc1ccnc(NS(=O)(=O)c2ccc(NC(=O)c3cncc(Br)c3)cc2)n1 [CS165]
11 | > 100 µM | O=C(CSc1nnc(-c2ccccc2O)n1-c1ccccc1)Nc1cccc(C(=O)O)c1 [CS166]
12 | > 100 µM | CCc1ccccc1NC(=O)CSc1nnc(-c2cccc(OC)c2)n1C [CS169]
13 | > 100 µM | CN1CCN(C(=O)CN(C)S(=O)(=O)c2ccc3ccccc3c2)CC1 [CS173]
14 | > 100 µM | COc1cc(-c2nnc(SCC(N)=O)n2C)cc(OC)c1OC [CS175]
15 | > 100 µM | COc1ccc([N+](=O)[O-])cc1NC(=O)C(C)Oc1ccccc1C (centres undefined) [CS177]
16 | > 100 µM | COc1ccccc1CNC(=O)CSc1nnnn1-c1c(C)cccc1C [CS184]
17 | > 100 µM | Cn1c(Cc2ccccc2)nnc1Sc1ccc([N+](=O)[O-])cc1C(=O)N1CCOCC1 [CS188]
18 | > 100 µM | COc1ccc(NC(=O)CN2CCOCC2)c([N+](=O)[O-])c1 [CS189]

Row | Kd | SMILES
19 | > 100 µM | CCOC(=O)c1cnc(Nc2nc3ccccc3o2)nc1CN1CCN(c2ccccc2)CC1 [CS196]
20 | > 100 µM | COc1ccccc1-n1nnnc1SCC(=O)Nc1ccccc1SC [CS197]
21 | > 100 µM | COc1ccccc1NC(=O)CSc1nncn1C [CS198]
22 | > 100 µM | O=C(Cn1cnc([N+](=O)[O-])n1)Nc1ccc(N2CCOCC2)c(Cl)c1 [CS200]
23 | > 100 µM | COc1cc(NC(=O)CSc2nncn2C)cc(OC)c1OC [CS202]
24 | > 100 µM | Cc1nonc1OCCNc1cc(N2CCOCC2)ccc1[N+](=O)[O-] [CS204]
25 | > 100 µM | O=C(CC1OCCN(Cc2ccccc2)C1=O)Nc1ccc2c(c1)OCCO2 (centres undefined) [CS208]
26 | > 100 µM | O=C(Cc1ccccc1[N+](=O)[O-])Nc1ccccc1C(=O)N1CCOCC1 [CS209]
27 | > 100 µM | CCn1c(SCC(=O)Nc2ccccc2OC)nnc1-c1c[nH]c2ccccc12 [CS213]
28 | > 100 µM | COc1ccccc1NC(=O)CSc1nnc(-c2ccccc2Cl)n1-c1ccccc1 [CS222]
29 | > 100 µM | CSc1ccc(S(=O)(=O)NCc2ccccn2)cc1 [CS230]
30 | > 100 µM | Cn1nc([N+](=O)[O-])nc1Oc1ccccc1C(=O)N1CCOCC1 [CS231]
31 | > 100 µM | Cc1cccc(NS(=O)(=O)c2cc(C(=O)Nc3ccccc3C(=O)N3CCOCC3)ccc2Cl)c1 [CS232]
32 | > 100 µM | O=C(CSc1nnc(-c2ccncc2)o1)Nc1ccc(F)cc1 [CS234]
33 | > 100 µM | COc1ccc2[nH]cc(CCNC(=O)Nc3ccc(Cl)c(Cl)c3)c2c1 [CS236]
34 | > 100 µM | Cc1nc2ncnn2c(O)c1NS(=O)(=O)c1ccc(Br)cc1 [CS237]
35 | > 100 µM | Cc1ccc(NS(=O)(=O)c2cc(C(=O)Nc3ccccc3C(=O)N3CCOCC3)ccc2Cl)c(C)c1 [CS238]

More lines, now with the values behind:

Row | SMILES | Kd
36 | COc1ccc2c(C)nc(Nc3nc(C)cc(O)n3)nc2c1 | > 100 µM
37 | O=C(O)c1cccc(CSc2nnc(-c3ccncc3)o2)c1 [3-({[5-(pyridin-4-yl)-1,3,4-oxadiazol-2-yl]sulfanyl}methyl)benzoic acid] | > 100 µM
38 | COc1cccc(NC(=O)CSc2nnnn2C)c1 [CS27] | > 100 µM
39 | CCc1nnc(NS(=O)(=O)c2ccc(NC(=O)c3ccc(F)cc3)cc2)s1 [CS31] | > 100 µM
40 | COc1ccc(CC(NC(C)=O)c2ccc3cccnc3c2O)cc1OC (centres undefined) [CS32] | > 100 µM
41 | O=S(=O)(NCCSc1ccccn1)c1ccc(Br)cc1 [CS33] | > 100 µM
42 | CC1CCN(S(=O)(=O)c2ccc(Cl)c(C(=O)Nc3ccc(C(=O)O)cc3)c2)CC1 [CS34] | > 100 µM
43 | COc1ccc(OCC(=O)Nc2cc(-c3nn4c(C)nnc4s3)ccc2C)cc1 [CS36] | > 100 µM
44 | COc1ccc(NC(=O)CCSc2nnc3scc(-c4ccc(C)cc4)n23)cc1 [CS37] | > 100 µM
45 | COC(=O)c1ccccc1NC(=O)CSc1nnc(C23C[C@H]4C[C@@H](C2)C[C@@H](C3)C4)n1C [CS38] | > 100 µM
46 | COc1ccc(NC(=O)CSc2nnc(-c3ccncc3)[nH]2)cc1 [CS41] | > 100 µM
47 | O=C(COc1ccccc1[N+](=O)[O-])Nc1ccccc1N1CCOCC1 [CS46] | > 100 µM
48 | COc1cc(OC)c(NC(=O)CSc2nnc(-c3ccccc3)n2C)cc1Cl [CS47] | > 100 µM
49 | CCOc1ccc2nc(SCC(=O)Nc3c(C)n(C)n(-c4ccccc4)c3=O)sc2c1 [CS49] | > 100 µM
50 | COc1ccc(NC(=O)CSc2nnnn2C)cc1 [CS53] | > 100 µM
51 | CCOc1ccc(C(C)=O)cc1Cc1c(O)nc(N)nc1O [CS55] | > 100 µM
52 | O=C(CSc1nnc(-c2ccc([N+](=O)[O-])cc2)n1-c1ccccc1)N1CCOCC1 [CS58] | > 100 µM
53 | COC(=O)c1ccc(NC(=O)CSc2nnc(-c3ccc(NC(C)=O)cc3)n2C)cc1 [CS59] | > 100 µM
54 | Cn1c(COc2cccc3cccnc23)nnc1SCC(N)=O [CS64] | > 100 µM
55 | CN1CCN(C(=O)CN(c2cc(C(F)(F)F)ccc2Cl)S(=O)(=O)c2ccccc2)CC1 [CS65] | > 100 µM
56 | CCn1c(SCC(=O)Nc2cccc(C(C)=O)c2)nnc1-c1ccncc1 [CS66] | > 100 µM
57 | COc1ccc(C(=O)CSc2nnc(-c3ccc(OC)c(OC)c3)n2-c2ccccc2)cc1 [CS67] | > 100 µM
58 | Cc1c(NC(=O)C2CCCN2S(=O)(=O)c2ccccc2)c(=O)n(-c2ccccc2)n1C (centres undefined) [CS68] | > 100 µM
59 | NC(=O)c1ccc(NCCCN2CCOCC2)c([N+](=O)[O-])c1 [CS69] | > 100 µM
60 | CC(=O)Nc1ccc(S(=O)(=O)Nc2c(C)nn(-c3ccccc3)c2C)cc1 [CS70] | > 100 µM

Row | SMILES | Kd
61 | CC(=O)Nc1cccc(-c2nnc(SCC(=O)Nc3ccc(C(C)=O)cc3)n2C)c1 [CS71] | > 100 µM
62 | COC(=O)c1ccccc1NC(=O)CSc1nnc(-c2ccc(OC)cc2)n1C [CS72] | > 100 µM
63 | COc1ccc(-n2c(SCC(N)=O)nnc2-c2cccs2)cc1 [CS73] | > 100 µM
64 | CS(=O)(=O)c1ccc(NC(=O)CSc2nnc(-c3ccccc3F)n2-c2ccccc2)cc1 [CS74] | > 100 µM
65 | CN1CCN(C(=O)c2ccccc2N(Cc2ccccc2)S(C)(=O)=O)CC1 [CS76] | > 100 µM
66 | COC(=O)c1ccc(NC(=O)CSc2nnnn2-c2ccccc2OC)cc1 [CS77] | > 100 µM
67 | COc1ccc(-c2nnc(SCC(=O)Nc3c(F)cc(F)cc3Br)n2C)cc1 [CS78] | > 100 µM
68 | O=C(Cn1c(NCCO)nc2ccccc21)c1cccc([N+](=O)[O-])c1 [CS80] | > 100 µM
69 | COc1cccc(-n2nnnc2SCC(=O)Nc2c(C)cc(C)cc2C)c1 [CS81] | > 100 µM
70 | COc1ccccc1NC(=O)CSc1nnc(-c2ccc([N+](=O)[O-])cc2)n1-c1ccccc1 [CS82] | > 100 µM
71 | COc1ccc(NC(=O)c2ccco2)cc1NC(=O)c1cccnc1 [CS85] | > 100 µM
72 | COC(=O)c1ccccc1Oc1nc(NC(C)C)nc(NC(C)C)n1 [CS92] | > 100 µM
73 | O=C(Nc1ccc(S(=O)(=O)Nc2ncccn2)cc1)c1c(Cl)cccc1Cl [CS93] | > 100 µM
74 | CCn1c(SCC(=O)Nc2cccc(OC)c2)nnc1-c1ccncc1 [CS95] | > 100 µM
75 | COc1cc(OC)c(NC(=O)CSc2nnc(-c3ccncc3)n2C)cc1Cl [CS96] | > 100 µM
76 | COc1ccccc1NC(=O)CSc1nnc(-c2ccc(F)cc2)n1C [CS98] | > 100 µM
77 | Cc1ccc(S(=O)(=O)Nc2ccccc2CNc2cnc3ccccc3c2)cc1 [CS100] | > 100 µM
78 | O=C(Cn1nc(-c2cccc([N+](=O)[O-])c2)c2ccccc2c1=O)NCC1CCCO1 (centres undefined) [CS102] | > 100 µM
79 | O=S(=O)(NCc1ccccn1)c1cc(Cl)c(Cl)cc1Cl [CS104] | > 100 µM
80 | Cc1cc(C)c(S(=O)(=O)NCc2ccccn2)cc1C [CS105] | > 100 µM
81 | COc1cc(OC)c(NC(=O)CSc2nnc(-c3ccncc3)n2-c2ccccc2)cc1Cl [CS109] | > 100 µM
82 | CC(=O)c1cccc(NC(=O)CSc2nnc(-c3cc4ccccc4cc3O)n2C)c1 [CS110] | > 100 µM
83 | COc1ccc(C(=O)C(C)Oc2cccc(NC(=O)c3cccc([N+](=O)O)c3)c2)cc1 (centres undefined) [CS112] | > 100 µM
84 | O=S(=O)(NCc1ccccn1)c1ccc(Cl)c(Cl)c1Cl [CS116] | > 100 µM
